Experimental data from paper PMC12892976, “Alkylation-based optimization of antifungal FPPS inhibitors yields a potent, broad-spectrum lipophilic zoledronate derivative” (mBio, 2025).
Values after ≈ are worked out from the molar mass of the structure shown.

Key:
Candida dubliniensis = experiment: MIC broth microdilution (CLSI); type: cell-based; settings: Candida dubliniensis M230642
Protocol: (§1) Antifungal susceptibility was determined by broth microdilution according to the CLSI guidelines described in M27-Ed4 ([16]).

Scedosporium apiospermum [1] = experiment: MIC broth microdilution (CLSI); type: cell-based; settings: Scedosporium apiospermum 04-16-022-2268
Protocol: as §1

[2] = test system: Trichophyton interdigitale; experiment: MIC broth microdilution (CLSI); type: cell-based; settings: Trichophyton interdigitale R-234
Protocol: as §1

Cryptococcus tetragattii = experiment: MIC broth microdilution (CLSI); type: cell-based; settings: Cryptococcus tetragattii WM779
Protocol: as §1

Candida auris = experiment: MIC broth microdilution (CLSI); type: cell-based; settings: Candida auris CDC-0384
Protocol: as §1

Scedosporium apiospermum [3] = experiment: checkerboard drug interaction (FICI, MICc); type: cell-based;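 further: simplified diagonal checkerboard screen of antifungal plus FPPS inhibitor pairs, with FICI computed under the Loewe additivity model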
Protocol: (§2) Drug interactions between antifungals and FPPS inhibitors were investigated using a simplified checkerboard diagonal screening method ([45]). […] FICIs were determined according to the Loewe additivity model ([17]).

[4] = test system: Cryptococcus bacillisporus; experiment: checkerboard drug interaction (FICI, MICc); type: cell-based;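 further: interaction of antifungals with FPPS inhibitors assessed by a simplified diagonal checkerboard screen, with FICI computed under the Loewe additivity model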
Protocol: as §2

Trichophyton soudanense = experiment: MIC broth microdilution (CLSI); settings: Trichophyton soudanense R-167
Protocol: as §1

[5] = test system: Cryptococcus deneoformans; experiment: MIC broth microdilution (CLSI); type: cell-based; settings: Cryptococcus deneoformans JEC21
Protocol: as §1

Aspergillus udagawae [6] = experiment: checkerboard drug interaction (FICI, MICc); type: cell-based;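 further: simplified diagonal checkerboard screen pairing antifungals with FPPS inhibitors, FICI calculated using the Loewe additivity model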
Protocol: as §2

Pichia kudriavzevii = experiment: MIC broth microdilution (CLSI); type: cell-based; settings: Pichia kudriavzavii ATCC 6258
Protocol: Antifungal susceptibility was determined by broth microdilution according to the CLSI guidelines described in M27-Ed4 ([16]). […] MFC was determined by back-plating drug-treated cultures from MIC broths onto SDA plates. The MFC was defined as the lowest concentration from which no colonies could be cultured.

Aspergillus felis = experiment: checkerboard drug interaction (FICI, MICc); type: cell-based;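 further: simplified diagonal checkerboard screen pairing antifungals with FPPS inhibitors, FICI calculated under the Loewe additivity model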
Protocol: as §2

Nannizzia gypsea = experiment: MIC broth microdilution (CLSI); type: cell-based; settings: Nannizzia gypsea R-131
Protocol: as §1

[7] = test system: Trichophyton interdigitale; experiment: checkerboard drug interaction (FICI, MICc);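 further: simplified diagonal checkerboard screen pairing antifungals with FPPS inhibitors, FICI values calculated under the Loewe additivity model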
Protocol: as §2

Rhizopus oryzae = experiment: checkerboard drug interaction (FICI, MICc); type: cell-based;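 further: simplified diagonal checkerboard screen pairing antifungals with FPPS inhibitors, FICI calculated under the Loewe additivity model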
Protocol: as §2

Nannizzia nana = experiment: MIC broth microdilution (CLSI); type: cell-based; settings: Nannizzia nana R-133
Protocol: as §1

Aspergillus parafelis = experiment: checkerboard drug interaction (FICI, MICc);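 further: simplified diagonal checkerboard screen pairing antifungals with FPPS inhibitors, FICI calculated under the Loewe additivity model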
Protocol: as §2

Microsporum canis = experiment: MIC broth microdilution (CLSI); settings: Microsporum canis R-232
Protocol: as §1

Candida tropicalis = experiment: MIC broth microdilution (CLSI); type: cell-based; settings: Candida tropicalis M230640
Protocol: as §1

Fusarium oxysporum = experiment: checkerboard drug interaction (FICI, MICc); type: cell-based;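 further: simplified diagonal checkerboard screen pairing antifungals with FPPS inhibitors, FICI calculated under the Loewe additivity model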
Protocol: as §2

Candida parapsilosis = experiment: checkerboard drug interaction (FICI, MICc); type: cell-based;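 further: simplified diagonal checkerboard screen pairing antifungals with FPPS inhibitors, with FICI computed under the Loewe additivity model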
Protocol: as §2

[8] = test system: Cryptococcus bacillisporus; experiment: MIC broth microdilution (CLSI); type: cell-based; settings: Cryptococcus bacillisporus NIH179
Protocol: as §1

Mucor circinelloides = experiment: checkerboard drug interaction (FICI, MICc); type: cell-based
Protocol: as §2

Aspergillus udagawae [9] = experiment: MIC broth microdilution (CLSI); type: cell-based; settings: Aspergillus udagawae 8G81
Protocol: as §1

SMILES	MIC / MEC (Candida dubliniensis)	MIC / MEC (Scedosporium apiospermum [1])	MIC / MEC [2]	MIC / MEC (Cryptococcus tetragattii)	MIC / MEC (Candida auris)	antifungal MICc (Scedosporium apiospermum [3]; in combination with 10-ZOL)	antifungal MICc (Scedosporium apiospermum [3]; in combination with ZOL)	antifungal MICc ([4]; in combination with 10-ZOL)	antifungal MICc ([4]; in combination with ZOL)	MIC / MEC (Trichophyton soudanense)	MIC / MEC [5]	antifungal MICc (Aspergillus udagawae [6]; in combination with 10-ZOL)	antifungal MICc (Aspergillus udagawae [6]; in combination with ZOL)	MIC / MEC (Pichia kudriavzevii)	antifungal MICc (Aspergillus felis; in combination with 10-ZOL)	antifungal MICc (Aspergillus felis; in combination with ZOL)	MIC / MEC (Nannizzia gypsea)	antifungal MICc ([7]; in combination with 10-ZOL)	antifungal MICc ([7]; in combination with ZOL)	antifungal MICc (Rhizopus oryzae; in combination with 10-ZOL)	also measured
CC[C@H](C)C[C@H](C)CCCCCCCCC(=O)N[C@H]1C[C@@H](O)[C@@H](NCCN)NC(=O)[C@@H]2[C@@H](O)CCN2C(=O)[C@H]([C@H](O)CCN)NC(=O)[C@H]([C@H](O)[C@@H](O)c2ccc(O)cc2)NC(=O)[C@@H]2C[C@@H](O)CN2C(=O)[C@H]([C@@H](C)O)NC1=O [CAS, caspofungin]	0.06 mg/L (≈ 0.0549 µM)	16 mg/L (≈ 14.6 µM)	0.25 mg/L (≈ 0.229 µM)	8 mg/L (≈ 7.32 µM)	4 mg/L (≈ 3.66 µM)	16	32	2	8	0.5 mg/L (≈ 0.457 µM)	16 mg/L (≈ 14.6 µM)	1	2	1 mg/L (≈ 0.915 µM)	0.5	0.5	1 mg/L (≈ 0.915 µM)	0.5	0.25	128	antifungal MICc (Rhizopus oryzae; in combination with ZOL): 4; MIC / MEC (Nannizzia nana): 0.13 mg/L (≈ 0.119 µM); antifungal MICc (Aspergillus parafelis; in combination with 10-ZOL): 0.5; antifungal MICc (Aspergillus parafelis; in combination with ZOL): 0.065; MIC / MEC (Microsporum canis): 0.25 mg/L (≈ 0.229 µM); MIC / MEC (Candida tropicalis): 0.06 mg/L (≈ 0.0549 µM); antifungal MICc (Fusarium oxysporum; in combination with 10-ZOL): 128; antifungal MICc (Fusarium oxysporum; in combination with ZOL): 64; antifungal MICc (Candida parapsilosis; in combination with 10-ZOL): 0.25; antifungal MICc (Candida parapsilosis; in combination with ZOL): 0.5; MIC / MEC [8]: 8 mg/L (≈ 7.32 µM); antifungal MICc (Mucor circinelloides; in combination with 10-ZOL): 128; antifungal MICc (Mucor circinelloides; in combination with ZOL): 16; MIC / MEC (Aspergillus udagawae [9]): 2 mg/L (≈ 1.83 µM)
C[C@@H](c1ncncc1F)[C@](O)(Cn1cncn1)c1ccc(F)cc1F [VOR]	0.06 mg/L (≈ 0.172 µM)	1 mg/L (≈ 2.86 µM)	0.25 mg/L (≈ 0.716 µM)	0.13 mg/L (≈ 0.372 µM)	2 mg/L (≈ 5.73 µM)	0.5	1	0.03	0.125	0.13 mg/L (≈ 0.372 µM)	0.06 mg/L (≈ 0.172 µM)	0.03	0.5	0.5 mg/L (≈ 1.43 µM)	0.5	0.5	0.25 mg/L (≈ 0.716 µM)	0.063	0.0625	8	antifungal MICc (Rhizopus oryzae; in combination with ZOL): 8; MIC / MEC (Nannizzia nana): 0.06 mg/L (≈ 0.172 µM); antifungal MICc (Aspergillus parafelis; in combination with 10-ZOL): 2; antifungal MICc (Aspergillus parafelis; in combination with ZOL): 2; MIC / MEC (Microsporum canis): 0.03 mg/L (≈ 0.0859 µM); MIC / MEC (Candida tropicalis): 0.13 mg/L (≈ 0.372 µM); antifungal MICc (Fusarium oxysporum; in combination with 10-ZOL): 1; antifungal MICc (Fusarium oxysporum; in combination with ZOL): 4; antifungal MICc (Candida parapsilosis; in combination with 10-ZOL): 0.063; antifungal MICc (Candida parapsilosis; in combination with ZOL): 0.125; MIC / MEC [8]: 0.06 mg/L (≈ 0.172 µM); antifungal MICc (Mucor circinelloides; in combination with 10-ZOL): 4; antifungal MICc (Mucor circinelloides; in combination with ZOL): 4; MIC / MEC (Aspergillus udagawae [9]): 1 mg/L (≈ 2.86 µM)
Nc1nc(=O)[nH]cc1F [5FC, 5-flucytosine]	0.25 mg/L (≈ 1.94 µM)	>64 mg/L	>64 mg/L	4 mg/L (≈ 31 µM)	2 mg/L (≈ 15.5 µM)	256	256	1	0.125	64 mg/L (≈ 496 µM)	2 mg/L (≈ 15.5 µM)	64	256	16 mg/L (≈ 124 µM)	256	64	>64 mg/L	64	128	512	antifungal MICc (Rhizopus oryzae; in combination with ZOL): 256; MIC / MEC (Nannizzia nana): 32 mg/L (≈ 248 µM); antifungal MICc (Aspergillus parafelis; in combination with 10-ZOL): 512; antifungal MICc (Aspergillus parafelis; in combination with ZOL): 128; MIC / MEC (Microsporum canis): >64 mg/L; MIC / MEC (Candida tropicalis): 0.5 mg/L (≈ 3.87 µM); antifungal MICc (Fusarium oxysporum; in combination with 10-ZOL): 512; antifungal MICc (Fusarium oxysporum; in combination with ZOL): 512; antifungal MICc (Candida parapsilosis; in combination with 10-ZOL): 0.125; antifungal MICc (Candida parapsilosis; in combination with ZOL): 0.25; MIC / MEC [8]: 4 mg/L (≈ 31 µM); antifungal MICc (Mucor circinelloides; in combination with 10-ZOL): 512; antifungal MICc (Mucor circinelloides; in combination with ZOL): 512; MIC / MEC (Aspergillus udagawae [9]): >64 mg/L
